Measurements: US8067042B1 (Mutual Pharmaceutical Company, Inc., priority 2007, dated 2011)
Where “and” joins values, the source holds several entries; their conditions need not be identical. Equal entries are not always repeated. Where two headings read alike, the source gives them in different places. Marks after values point to notes of the source that are not given here.

How the values were obtained:
[1] = biological target: T1, Human CYP2A6 + P450 Reductase + Cytochrome b5 SUPERSOMES (Homo sapiens, UniProt P11509)
T1 sequence (P11509 1-494): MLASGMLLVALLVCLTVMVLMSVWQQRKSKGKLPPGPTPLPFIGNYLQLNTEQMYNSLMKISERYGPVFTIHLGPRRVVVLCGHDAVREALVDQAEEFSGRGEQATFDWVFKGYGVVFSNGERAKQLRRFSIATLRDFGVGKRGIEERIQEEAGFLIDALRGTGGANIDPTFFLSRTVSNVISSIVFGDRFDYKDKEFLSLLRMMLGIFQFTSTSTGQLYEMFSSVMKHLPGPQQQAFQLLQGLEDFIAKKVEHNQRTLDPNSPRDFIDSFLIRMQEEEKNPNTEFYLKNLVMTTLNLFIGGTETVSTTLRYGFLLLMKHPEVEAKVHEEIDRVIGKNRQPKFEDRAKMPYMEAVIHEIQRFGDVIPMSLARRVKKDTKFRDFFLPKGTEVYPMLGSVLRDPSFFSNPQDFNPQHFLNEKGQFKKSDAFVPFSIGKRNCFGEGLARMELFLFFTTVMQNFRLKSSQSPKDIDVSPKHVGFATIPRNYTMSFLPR
Experimental: (§1) In this study, individual CYP isoforms expressed from human cDNA and P450 reductase cDNA were used (BD SUPERSOMES™ Enzymes, BD Biosciences Discovery Labware, Woburn, Mass.). SUPERSOMES™ are microsomes from baculovirus-infected insect cells containing singly expressed recombinant human CYP enzymes.
(§2) After a 5-minute preincubation, an appropriate amount of the appropriate buffer was added to the reaction mixtures to make the final volume of 0.5 mL. The incubations were continued for 60 minutes.
(§3) All incubation reactions were terminated by adding 0.5 mL methanol, and the samples were transferred to cryovials and stored at −70±10° C. until analysis.

[2] = biological target: Human CYP2C19 + P450 Reductase + Cytochrome b5 SUPERSOMES (Homo sapiens, UniProt P33261)
Experimental: as §1, §2, §3

[3] = biological target: T2, Human CYP2B6 + P450 Reductase + Cytochrome b5 SUPERSOMES (Homo sapiens, UniProt P20813)
T2 sequence (P20813 1-491): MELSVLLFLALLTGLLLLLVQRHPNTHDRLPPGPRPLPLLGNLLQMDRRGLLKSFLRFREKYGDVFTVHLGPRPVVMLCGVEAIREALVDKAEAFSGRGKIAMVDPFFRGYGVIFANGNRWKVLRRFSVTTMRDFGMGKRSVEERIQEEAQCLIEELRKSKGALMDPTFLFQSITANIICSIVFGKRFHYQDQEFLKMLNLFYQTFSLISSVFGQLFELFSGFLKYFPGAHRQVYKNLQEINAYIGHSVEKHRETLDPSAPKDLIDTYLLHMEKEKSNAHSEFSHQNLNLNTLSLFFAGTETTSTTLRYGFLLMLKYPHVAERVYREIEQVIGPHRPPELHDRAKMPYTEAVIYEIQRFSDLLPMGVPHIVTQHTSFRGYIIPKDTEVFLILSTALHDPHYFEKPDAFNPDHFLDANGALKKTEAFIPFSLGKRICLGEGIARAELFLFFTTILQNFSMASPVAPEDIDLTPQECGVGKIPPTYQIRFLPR
Experimental: as §1, §2, §3

[4] = biological target: Human CYP2C9*1 (Arg144) + P450 Reductase + Cytochrome b5 SUPERSOMES (Homo sapiens, UniProt P11712)
Experimental: as §1, §2, §3

[5] = biological target: Human CYP3A4 + P450 Reductase + Cytochrome b5 SUPERSOMES (Homo sapiens, UniProt P08684)
Experimental: as §1, §2, §3

[6] = 5 μM, 5 pmol enzyme, listed as megestrol acetate
[7] = 5 μM, 20 pmol enzyme, listed as megestrol acetate
[8] = 50 μM, 5 pmol enzyme, listed as megestrol acetate
[9] = 50 μM, 20 pmol enzyme, listed as megestrol acetate

Human CYP3A4 + P450 Reductase + Cytochrome b5 SUPERSOMES, sequence (P08684 whole entry): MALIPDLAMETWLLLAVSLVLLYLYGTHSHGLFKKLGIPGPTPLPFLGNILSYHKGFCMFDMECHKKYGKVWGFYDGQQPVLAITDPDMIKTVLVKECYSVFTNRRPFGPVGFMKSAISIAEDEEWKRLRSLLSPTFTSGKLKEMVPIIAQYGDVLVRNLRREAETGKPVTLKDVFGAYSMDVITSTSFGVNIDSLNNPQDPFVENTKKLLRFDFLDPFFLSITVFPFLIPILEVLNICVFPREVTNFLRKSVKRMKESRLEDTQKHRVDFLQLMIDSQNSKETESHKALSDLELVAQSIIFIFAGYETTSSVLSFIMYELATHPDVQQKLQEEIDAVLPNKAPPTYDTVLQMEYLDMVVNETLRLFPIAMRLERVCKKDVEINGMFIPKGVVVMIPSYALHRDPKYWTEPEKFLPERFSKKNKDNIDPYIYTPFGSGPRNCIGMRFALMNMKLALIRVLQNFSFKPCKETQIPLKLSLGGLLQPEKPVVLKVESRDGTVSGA
Human CYP2C19 + P450 Reductase + Cytochrome b5 SUPERSOMES, sequence (P33261 whole entry): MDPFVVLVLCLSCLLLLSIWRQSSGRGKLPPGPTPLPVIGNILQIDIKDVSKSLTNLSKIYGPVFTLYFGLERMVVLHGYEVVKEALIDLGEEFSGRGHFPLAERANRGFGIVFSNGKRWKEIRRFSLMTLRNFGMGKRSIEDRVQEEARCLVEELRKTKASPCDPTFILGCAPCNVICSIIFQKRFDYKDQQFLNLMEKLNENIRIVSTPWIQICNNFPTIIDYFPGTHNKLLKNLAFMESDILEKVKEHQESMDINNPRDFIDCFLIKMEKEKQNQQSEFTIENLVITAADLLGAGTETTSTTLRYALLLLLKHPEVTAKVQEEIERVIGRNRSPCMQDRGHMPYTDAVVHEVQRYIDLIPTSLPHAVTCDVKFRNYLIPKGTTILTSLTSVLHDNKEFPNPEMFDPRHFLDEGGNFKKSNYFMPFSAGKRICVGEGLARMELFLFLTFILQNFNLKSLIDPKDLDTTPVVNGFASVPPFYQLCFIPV

SMILES: CC(=O)O[C@]1(C(C)=O)CC[C@H]2[C@@H]3C=C(C)C4=CC(=O)CC[C@]4(C)[C@H]3CC[C@@]21C [Megestrol Acetate, 17 α-acetyloxy-6-methylpregna-4,6-diene-3,20-dione]
- Individual Raw Data Observed ([1]; 5 μM, 5 pmol enzyme): 2.313 µM and 2.35 µM and 2.527 µM
- Percent of Parent Disappearance Individual ([1]; 5 μM, 5 pmol enzyme): 3.96% and 2.43% and −4.94%
- Percent of Parent Disappearance Mean ± SD ([1]; 5 μM, 5 pmol enzyme): 0.486 ± 4.76%
- Percent of Parent Disappearance Mean ± SD [1, 6]: 0.486±4.76%
- Individual Raw Data Observed ([1]; 5 μM, 20 pmol enzyme): 2.456 µM and 2.487 µM and 2.684 µM
- Percent of Parent Disappearance Individual ([1]; 5 μM, 20 pmol enzyme): 1.36% and 0.129% and −7.81%
- Percent of Parent Disappearance Mean ± SD ([1]; 5 μM, 20 pmol enzyme): −2.11 ± 4.98%
- Percent of Parent Disappearance Mean ± SD [1, 7]: 2.11±4.98%
- Individual Raw Data Observed ([1]; 50 μM, 5 pmol enzyme): 24.75 µM and 23.3 µM and 23.45 µM
- Percent of Parent Disappearance Individual ([1]; 50 μM, 5 pmol enzyme): −5.02% and 1.11% and 0.484%
- Percent of Parent Disappearance Mean ± SD ([1]; 50 μM, 5 pmol enzyme): −1.14 ± 3.38%
- Percent of Parent Disappearance Mean ± SD [1, 8]: 1.14±3.38%
- Individual Raw Data Observed ([1]; 50 μM, 20 pmol enzyme): 21.74 µM and 22.68 µM and 23.15 µM
- Percent of Parent Disappearance Individual ([1]; 50 μM, 20 pmol enzyme): 4.54% and 0.420% and −1.66%
- Percent of Parent Disappearance Mean ± SD ([1]; 50 μM, 20 pmol enzyme): 1.10 ± 3.16%
- Percent of Parent Disappearance Mean ± SD [1, 9]: 1.10±3.16%
- Individual Raw Data Observed ([2]; 5 μM, 5 pmol enzyme): 2.139 µM and 2.028 µM and 1.969 µM
- Percent of Parent Disappearance Individual ([2]; 5 μM, 5 pmol enzyme): −8.12% and −2.56% and 0.430%
- Percent of Parent Disappearance Mean ± SD ([2]; 5 μM, 5 pmol enzyme): −3.42 ± 4.34%
- Percent of Parent Disappearance Mean ± SD [2, 6]: 3.42±4.34%
- Individual Raw Data Observed ([2]; 5 μM, 20 pmol enzyme): 2.14 µM and 2.225 µM and 2.128 µM
- Percent of Parent Disappearance Individual ([2]; 5 μM, 20 pmol enzyme): 2.70% and −1.16% and 3.25%
- Percent of Parent Disappearance Mean ± SD ([2]; 5 μM, 20 pmol enzyme): 1.60 ± 2.40%
- Percent of Parent Disappearance Mean ± SD [2, 7]: 1.60±2.40%
- Individual Raw Data Observed ([2]; 50 μM, 5 pmol enzyme): 21.34 µM and 20.03 µM and 19.86 µM
- Percent of Parent Disappearance Individual ([2]; 50 μM, 5 pmol enzyme): −9.66% and −2.96% and −2.05%
- Percent of Parent Disappearance Mean ± SD ([2]; 50 μM, 5 pmol enzyme): −4.89 ± 4.16%
- Percent of Parent Disappearance Mean ± SD [2, 8]: 4.89±4.16%
- Individual Raw Data Observed ([2]; 50 μM, 20 pmol enzyme): 15.71 µM and 16.25 µM and 16.51 µM
- Percent of Parent Disappearance Individual ([2]; 50 μM, 20 pmol enzyme): −0.956% and −4.44% and −6.11%
- Percent of Parent Disappearance Mean ± SD ([2]; 50 μM, 20 pmol enzyme): −3.84 ± 2.63%
- Percent of Parent Disappearance Mean ± SD [2, 9]: 3.84±2.63%
- Individual Raw Data Observed ([3]; 5 μM, 5 pmol enzyme): 2.221 µM and 2.3 µM and 2.31 µM
- Percent of Parent Disappearance Individual ([3]; 5 μM, 5 pmol enzyme): −0.459% and −4.00% and −4.49%
- Percent of Parent Disappearance Mean ± SD ([3]; 5 μM, 5 pmol enzyme): −2.98 ± 2.20%
- Percent of Parent Disappearance Mean ± SD [3, 6]: 2.98±2.20%
- Individual Raw Data Observed ([3]; 5 μM, 20 pmol enzyme): 2.474 µM and 2.381 µM and 2.385 µM
- Percent of Parent Disappearance Individual ([3]; 5 μM, 20 pmol enzyme): −0.257% and 3.52% and 3.37%
- Percent of Parent Disappearance Mean ± SD ([3]; 5 μM, 20 pmol enzyme): 2.21 ± 2.14%
- Percent of Parent Disappearance Mean ± SD [3, 7]: 2.21±2.14%
- Individual Raw Data Observed ([3]; 50 μM, 5 pmol enzyme): 20.88 µM and 21.85 µM and 25.99 µM
- Percent of Parent Disappearance Individual ([3]; 50 μM, 5 pmol enzyme): 3.63% and −0.862% and −20.0%
- Percent of Parent Disappearance Mean ± SD ([3]; 50 μM, 5 pmol enzyme): −5.73 ± 12.5%
- Percent of Parent Disappearance Mean ± SD [3, 8]: 5.73±12.5%
- Individual Raw Data Observed ([3]; 50 μM, 20 pmol enzyme): 21.46 µM and 22.47 µM and 22.35 µM
- Percent of Parent Disappearance Mean ± SD ([3]; 50 μM, 20 pmol enzyme): 2.53 ± 2.43%
- Percent of Parent Disappearance Mean ± SD [3, 9]: 2.53±2.43%
- Individual Raw Data Observed ([4]; 5 μM, 5 pmol enzyme): 2.098 µM and 2.127 µM and 2.133 µM
- Percent of Parent Disappearance Individual ([4]; 5 μM, 5 pmol enzyme): 3.68% and 2.33% and 2.08%
- Percent of Parent Disappearance Mean ± SD ([4]; 5 μM, 5 pmol enzyme): 2.70 ± 0.860%
- Percent of Parent Disappearance Mean ± SD [4, 6]: 2.70±0.860%
- Individual Raw Data Observed ([4]; 5 μM, 20 pmol enzyme): 2.314 µM and 2.379 µM and 2.134 µM
- Percent of Parent Disappearance Individual ([4]; 5 μM, 20 pmol enzyme): 9.53% and 6.99% and 16.6%
- Percent of Parent Disappearance Mean ± SD ([4]; 5 μM, 20 pmol enzyme): 11.0 ± 4.96%
- Percent of Parent Disappearance Mean ± SD [4, 7]: 11.0±4.96%
- Individual Raw Data Observed ([4]; 50 μM, 5 pmol enzyme): 20.38 µM and 20.18 µM and 20.9 µM
- Percent of Parent Disappearance Individual ([4]; 50 μM, 5 pmol enzyme): 21.5% and 22.2% and 19.5%
- Percent of Parent Disappearance Mean ± SD ([4]; 50 μM, 5 pmol enzyme): 21.0 ± 1.43%
- Percent of Parent Disappearance Mean ± SD [4, 8]: 21.0±1.43%
- Individual Raw Data Observed ([4]; 50 μM, 20 pmol enzyme): 24.33 µM and 21.36 µM and 25.28 µM
- Percent of Parent Disappearance Individual ([4]; 50 μM, 20 pmol enzyme): −1.60% and 10.8% and −5.60%
- Percent of Parent Disappearance Mean ± SD ([4]; 50 μM, 20 pmol enzyme): 1.19 ± 8.54%
- Percent of Parent Disappearance Mean ± SD [4, 9]: 1.19±8.54%
- Individual Raw Data Observed ([5]; 5 μM, 5 pmol enzyme): 0.8008 µM and 0.7908 µM and 0.8634 µM
- Percent of Parent Disappearance Individual ([5]; 5 μM, 5 pmol enzyme): 58.1% and 58.6% and 54.8%
- Percent of Parent Disappearance Mean ± SD ([5]; 5 μM, 5 pmol enzyme): 57.2 ± 02.06%
- Percent of Parent Disappearance Mean ± SD [5, 6]: 57.2±2.06%
- Individual Raw Data Observed ([5]; 5 μM, 20 pmol enzyme): 0.00000 ^a μM
- Percent of Parent Disappearance Individual ([5]; 5 μM, 20 pmol enzyme): >93.6%
- Percent of Parent Disappearance Mean ± SD ([5]; 5 μM, 20 pmol enzyme): >93.6 ± 0.000%
- Percent of Parent Disappearance Mean ± SD [5, 7]: > 93.6±0.000%
- Individual Raw Data Observed ([5]; 50 μM, 5 pmol enzyme): 14.3 µM and 14.66 µM and 14.98 µM
- Percent of Parent Disappearance Individual ([5]; 50 μM, 5 pmol enzyme): 20.9% and 18.9% and 17.1%
- Percent of Parent Disappearance Mean ± SD ([5]; 50 μM, 5 pmol enzyme): 18.9 ± 1.90%
- Percent of Parent Disappearance Mean ± SD [5, 8]: 18.9±1.90%
- Individual Raw Data Observed ([5]; 50 μM, 20 pmol enzyme): 5.336 µM and 5.631 µM and 6.813 µM
- Percent of Parent Disappearance Individual ([5]; 50 μM, 20 pmol enzyme): 73.5% and 72.0% and 66.1%
- Percent of Parent Disappearance Mean ± SD ([5]; 50 μM, 20 pmol enzyme): 70.5 ± 3.89%
- Percent of Parent Disappearance Mean ± SD [5, 9]: 70.5±3.89%
